Experiments:
[1] = tested on: barnyardgrass; test: Test B pre-/postemergence herbicide test; format: in vivo, Echinochloa crus-galli; settings: for Barnyardgrass plant response rating: postemergence
How it was run: (§1)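 Visual rating, 0 (no effect) to 100 (complete control), versus untreated controls after 13–15 d in greenhouse. Pre- and postemergence applications (postemergence plants 2–18 cm, 1–4 leaves); flooded paddy arm at 2-leaf stage. Compounds in non-phytotoxic solvent plus surfactant.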

[2] = tested on: Surinam grass; test: Test B pre-/postemergence herbicide test; format: in vivo, Urochloa decumbens; settings: for Surinam Grass plant response rating: postemergence
How it was run: (§2)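 Response was scored visually 13 to 15 days after treatment against untreated greenhouse controls, 0 meaning no effect and 100 complete control. Formulations (solvent mixture plus surfactant) went onto soil after planting, onto foliage of 1- to 4-leaf plants, and onto 2-leaf plants in a flooded paddy set including rice and barnyardgrass.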

[3] = tested on: cocklebur; test: Test B pre-/postemergence herbicide test; format: in vivo, Xanthium strumarium; settings: for Cocklebur plant response rating: postemergence
How it was run: as §1

[4] = tested on: corn; test: Test B pre-/postemergence herbicide test; format: in vivo, Zea mays; settings: for Corn plant response rating: postemergence
How it was run: as §2

[5] = tested on: large crabgrass; test: Test B pre-/postemergence herbicide test; format: in vivo, Digitaria sanguinalis; settings: for Crabgrass, Large plant response rating: postemergence
How it was run: as §2

[6] = tested on: giant foxtail; test: Test B pre-/postemergence herbicide test; format: in vivo, Setaria faberi; settings: for Foxtail, Giant plant response rating: postemergence
How it was run: as §2

[7] = tested on: lambsquarters; test: Test B pre-/postemergence herbicide test; format: in vivo, Chenopodium album; settings: for Lambsquarters plant response rating: postemergence
How it was run: as §2

[8] = tested on: morningglory; test: Test B pre-/postemergence herbicide test; format: in vivo, Ipomoea coccinea; settings: for Morningglory plant response rating: postemergence
How it was run: as §1

[9] = tested on: pigweed; test: Test B pre-/postemergence herbicide test; format: in vivo, Amaranthus retroflexus; settings: for Pigweed plant response rating: postemergence
How it was run: as §2

[10] = tested on: rice; test: Test B pre-/postemergence herbicide test; format: in vivo, Oryza sativa; settings: preemergence
Source text: Seeds selected from barnyardgrass (Echinochloa crus-galli (L.) Beauv.), Surinam grass (Urochloa decumbens (Staph) R. D. Webster, previously named Brachiaria decumbens Stapf), cocklebur (Xanthium strumarium L.), corn (Zea mays L.), large crabgrass (Digitaria sanguinalis (L.) Scop.), giant foxtail (Setaria faberi Herim.), lambsquarters (Chenopodium album L.), morningglory (Ipomoea coccinea L.), pigweed (Amaranthus retroflexus L.), rice (Oryza sativa L.) and velvetleaf (Abutilon theophrasti Medik.) were planted and treated preemergence with test chemicals formulated in a non-phytotoxic solvent mixture which included a surfactant.
At the same time, plants selected from these crop and weed species and also blackgrass (Alopecurus myosuroides Huds.), wheat (Triticum aestivum L.) and wild oat (Avena fatua L.) were treated with postemergence applications of test chemicals formulated in the same manner. Plants ranged in height from 2 to 18 cm (1- to 4-leaf stage) for postemergence treatments. Plant species in the flooded paddy test consisted of rice (Oryza sativa L.), small flower umbrella sedge (Cyperus difformis L.), ducksalad (Heteranthera limosa (Sw.) Willd.) and barnyardgrass (Echinochloa crus-galli (L.) Beauv.) grown to the 2-leaf stage for testing. Treated plants and controls were maintained in a greenhouse for 13 to 15 days, after which time all species were compared to controls and visually evaluated. Plant response ratings, summarized in Table B, are based on a scale of 0 to 100 where 0 is no effect and 100 is complete control. A dash (-) response means no test result.

[11] = tested on: velvetleaf; test: Test B pre-/postemergence herbicide test; format: in vivo, Abutilon theophrasti; settings: for Velvetleaf plant response rating: postemergence
How it was run: as §2

[12] = tested on: blackgrass; test: Test B postemergence herbicide test; format: in vivo, Alopecurus myosuroides; settings: postemergence
How it was run: (§3)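 Visual ratings, 0 (no effect) to 100 (complete control), made versus controls after 13–15 d greenhouse. Paddy plants treated at 2-leaf stage; postemergence plants at 1- to 4-leaf stage, 2–18 cm tall.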

[13] = tested on: wheat; test: Test B postemergence herbicide test; format: in vivo, Triticum aestivum; set-up: key to Wheat plant response rating: 0 = no effect, 100 = complete control; settings: postemergence
How it was run: (§4)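 Formulated test chemicals went onto postemergence plants measuring 2 to 18 cm, at one to four leaves. For the paddy assay, species had reached two leaves. Scoring took place 13–15 days later by eye, relative to untreated plants, using 0 for no effect up to 100 for full control.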

[14] = tested on: wild oat; test: Test B postemergence herbicide test; format: in vivo, Avena fatua; settings: postemergence
How it was run: as §4

[15] = tested on: rice; test: Test B flooded paddy test; format: in vivo, Oryza sativa; settings: 1000 g ai/ha, scale 0 to 100 (0 no effect, 100 complete control)
How it was run: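 Postemergence plants were sprayed with formulated test chemicals at 2 to 18 cm height (1- to 4-leaf stage); paddy species were grown to the 2-leaf stage. After 13 to 15 days in a greenhouse, injury was rated visually against untreated controls on a 0–100 scale (0 = no effect, 100 = complete control).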

[16] = tested on: small flower umbrella sedge; test: Test B flooded paddy test; format: in vivo, Cyperus difformis; settings: 1000 g ai/ha, scale 0 to 100 (0 no effect, 100 complete control)
How it was run: as §3

[17] = tested on: ducksalad; test: Test B flooded paddy test; format: in vivo, Heteranthera limosa; settings: 1000 g ai/ha, scale 0 to 100 (0 no effect, 100 complete control)
How it was run: as §3

[18] = tested on: barnyardgrass; test: Test B flooded paddy test; format: in vivo, Echinochloa crus-galli; settings: 1000 g ai/ha, scale 0 to 100 (0 no effect, 100 complete control)
How it was run: as §3

[19] = 125 g ai/ha, 0 is no effect, 100 is complete control, preemergence
[20] = 125 g ai/ha, visual rating, scale 0 (no effect) to 100 (complete control)
[21] = 500 g ai/ha, visual rating, 0 = no effect, 100 = complete control, preemergence
[22] = 500 g ai/ha, scale 0 to 100, 0 is no effect, 100 is complete control

## CCc1cn(C(C)(C)C)nc1C(=O)Nc1cccc(C(=O)N(C)C)n1 [Compound 330]
[1]; [19]
  Plant response rating (0 to 100 scale), Barnyardgrass: 0
[1]; [20]
  Barnyardgrass plant response rating: 0
[1]; [21]
  Plant response rating, Barnyardgrass: 0
[1]; [22]
  Barnyardgrass plant response rating: 0
[2]; [19]
  Plant response rating (0 to 100 scale), Surinam Grass: 0
[2]; [20]
  Surinam Grass plant response rating: 0
[2]; [21]
  Plant response rating, Surinam Grass: 0
[2]; [22]
  Surinam Grass plant response rating: 0
[3]; [19]
  Plant response rating (0 to 100 scale), Cocklebur: 0
[3]; [20]
  Cocklebur plant response rating: 0
[3]; [21]
  Plant response rating, Cocklebur: 0
[3]; [22]
  Cocklebur plant response rating: 0
[4]; [19]
  Plant response rating (0 to 100 scale), Corn: 0
[4]; [20]
  Corn plant response rating: 0
[4]; [21]
  Plant response rating, Corn: 0
[4]; [22]
  Corn plant response rating: 0
[5]; [19]
  Plant response rating (0 to 100 scale), Crabgrass, Large: 0
[5]; [20]
  Crabgrass, Large plant response rating: 0
[5]; [21]
  Plant response rating, Crabgrass, Large: 0
[5]; [22]
  Crabgrass, Large plant response rating: 0
[6]; [19]
  Plant response rating (0 to 100 scale), Foxtail, Giant: 0
[6]; [20]
  Foxtail, Giant plant response rating: 0
[6]; [21]
  Plant response rating, Foxtail, Giant: 0
[6]; [22]
  Foxtail, Giant plant response rating: 0
[7]; [19]
  Plant response rating (0 to 100 scale), Lambsquarters: 0
[7]; [20]
  Lambsquarters plant response rating: 0
[7]; [21]
  Plant response rating, Lambsquarters: 0
[7]; [22]
  Lambsquarters plant response rating: 10
[8]; [19]
  Plant response rating (0 to 100 scale), Morningglory: 0
[8]; [20]
  Morningglory plant response rating: 10
[8]; [21]
  Plant response rating, Morningglory: 0
[8]; [22]
  Morningglory plant response rating: 10
[9]; [19]
  Plant response rating (0 to 100 scale), Pigweed: 0
[9]; [20]
  Pigweed plant response rating: 0
[9]; [21]
  Plant response rating, Pigweed: 0
[9]; [22]
  Pigweed plant response rating: 0
[10]; 125 g ai/ha, 0 is no effect, 100 is complete control
  Plant response rating (0 to 100 scale), Rice: 0
[10]; 500 g ai/ha, visual rating, 0 = no effect, 100 = complete control
  Plant response rating, Rice: 0
[11]; [19]
  Plant response rating (0 to 100 scale), Velvetleaf: 0
[11]; [20]
  Velvetleaf plant response rating: 0
[11]; [21]
  Plant response rating, Velvetleaf: 0
[11]; [22]
  Velvetleaf plant response rating: 10
[12]; [20]
  Blackgrass plant response rating: 0
[12]; [22]
  Blackgrass plant response rating: 0
[13]; [20]
  Wheat plant response rating: 0
[13]; [22]
  Wheat plant response rating: 0
[14]; [20]
  Oat, Wild plant response rating: 0
[14]; [22]
  Oat, Wild plant response rating: 20
[15]
  Rice plant response rating: 0
[16]
  Sedge, Umbrella plant response rating: 0
[17]
  Ducksalad plant response rating: 0
[18]
  Barnyardgrass plant response rating: 0

Source: US20060069132A1, “Azolecarboxamide herbicides” (priority 2004, published 2006)
